Several values for one entry are separate records, joined by “and”; a condition that tells them apart may be missing. Equal values may be shown once.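 Results reflect a 48-hour exposure of cells in 96-well plates to compound at five concentrations. At the GI50, growth is halved. TGI: concentration producing complete growth inhibition.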
Key:
Experiment in all cases: NCI tumour cell line growth inhibition, 48 h
HCT-15 colon = test system: HCT-15 colon
OVCAR-5 ovarian = test system: OVCAR-5 ovarian
NCI-H226 lung = test system: NCI-H226 lung
A549 NSCLC = test system: A549 NSCLC
LOX IMVI melanoma = test system: LOX IMVI melanoma
SN12C renal = test system: SN12C renal
SK-MEL-2 melanoma = test system: SK-MEL-2 melanoma
T-47D breast = test system: T-47D breast
EKVX NSCLC = test system: EKVX NSCLC
SNB-75 CNS = test system: SNB-75 CNS

Row | Compound | GI50 (HCT-15 colon) | TGI (HCT-15 colon) | GI50 (OVCAR-5 ovarian) | TGI (OVCAR-5 ovarian) | GI50 (NCI-H226 lung) | TGI (NCI-H226 lung) | GI50 (A549 NSCLC) | TGI (A549 NSCLC) | GI50 (LOX IMVI melanoma) | TGI (LOX IMVI melanoma) | GI50 (SN12C renal) | TGI (SN12C renal) | GI50 (SK-MEL-2 melanoma) | TGI (SK-MEL-2 melanoma) | GI50 (T-47D breast) | TGI (T-47D breast) | GI50 (EKVX NSCLC) | TGI (EKVX NSCLC) | GI50 (SNB-75 CNS) | TGI (SNB-75 CNS)
1 | N#Cc1cc2c(cc1Cl)Sc1nnc(Nc3cccc4ccccc34)n1S2(=O)=O | 4.74 µM | 24.4 µM | 15.1 µM | 28.4 µM | 7.83 µM | 20.9 µM | 37 µM | > 100 µM | 3.17 µM | 10.3 µM | 2.51 µM | 6.73 µM | 17.3 µM | > 100 µM | 1.25 µM | 3.67 µM | 20.2 µM | 39.6 µM | 6.43 µM | 18.2 µM
2 | COc1ccc(-c2[nH]c3ccccc3c2/C=C(\C#N)S(=O)(=O)c2ccccc2)cc1 | 0.552 µM | > 48 µM | 1.84 µM | > 100 µM | 2.02 µM | > 66.4 µM | 0.759 µM | > 35.5 µM | 1.23 µM | > 100 µM | 1.34 µM | > 100 µM | 4.79 µM | > 21.8 µM | 0.53 µM | 6.15 µM | 1.25 µM | > 100 µM | 0.375 µM | > 25.9 µM
3 | CN(C)CCCn1c2c(c3cc4c(cc3c1=O)OCO4)C(=O)c1ccccc1-2 | < 0.0275 µM | 4.35 µM | 11.1 µM | 45.7 µM | 3.25 µM | 11.3 µM | 0.105 µM | 2.43 µM | 0.0635 µM | 0.557 µM | 0.203 µM | 3.16 µM | 18.4 µM | > 59.5 µM | 22.7 µM | > 100 µM | 5.55 µM | 34.9 µM | 5.89 µM | 37.4 µM
4 | S=C(NCc1ccc2c(c1)OCO2)N1CCN(c2ncnc3c2oc2ccccc23)CC1 | > 100 µM | > 100 µM | > 100 µM | > 100 µM | 3.25 µM | > 100 µM | 7.24 µM | > 100 µM | > 100 µM | > 100 µM | > 100 µM | > 100 µM | 50.3 µM | > 100 µM | 2.3 µM | > 100 µM | 3.5 µM | > 100 µM | > 100 µM | > 100 µM
5 | C=CCN(CC=C)C(=O)[C@H](CC)[C@@H]1CC[C@@H](C)[C@@H]([C@H](C)[C@@H](O)[C@@H](C)C(=O)[C@H](CC)C2O[C@]3(C=C[C@@H](O)[C@]4(CC[C@@](C)([C@H]5CC[C@](O)(CC)[C@H](C)O5)O4)O3)[C@H](C)C[C@@H]2C)O1 (some centres undefined) | 2.05 µM | 4.81 µM | 2.25 µM | 7.26 µM | 1.86 µM | 4.92 µM | 3.37 µM | > 100 µM | 1.52 µM | 3.22 µM | 2.2 µM | 6.42 µM | 2.62 µM | 7.47 µM | 2.37 µM | 13.5 µM | 2.33 µM | 9.07 µM | 1.84 µM | 10.5 µM
6 | Cc1ccc(S(=O)(=O)NC(=O)OC23COCN2COC3)cc1 | – | > 100 µM | – | > 100 µM | – | > 100 µM | – | > 100 µM | – | > 100 µM | – | > 100 µM | – | > 100 µM | – | > 100 µM | – | > 100 µM | – | > 100 µM
7 | CN1CCCC1c1cccnc1.O=C(O)c1ccccc1O.O=C([O-])c1ccccc1[OH2+].O=C([O-])c1ccccc1[OH2+].[Mn+2] (centres undefined) | > 100 µM | > 100 µM | 73.1 µM | > 100 µM | > 100 µM | > 100 µM | > 100 µM | > 100 µM | > 100 µM | > 100 µM | > 100 µM | > 100 µM | 54.3 µM | > 100 µM | > 100 µM | > 100 µM | > 100 µM | > 100 µM | > 100 µM | > 100 µM
8 | C=CC(=O)N[C@@H](/C=C/C(=O)OCC)Cc1ccc(-c2cc(Cl)cc(Cl)c2)cc1 | 8.01 µM | > 100 µM | 21.6 µM | > 100 µM | 16.7 µM | 71.7 µM | 17.7 µM | > 100 µM | 14.2 µM | 35.6 µM | 8.04 µM | 26.7 µM | 16.3 µM | 38.3 µM | 3.35 µM | 28 µM | 11.2 µM | > 100 µM | 10.8 µM | 70 µM
9 | C/C(=N\NC(=S)N1CCN(c2ccccn2)CC1)c1ncccn1 | 0.013 µM | 5.48 µM and 16.7 µM | – | 4.77 µM and 21.5 µM | 1.71 µM | 5.78 µM and 11 µM | 0.117 µM | 5.91 µM and 13.2 µM | < 0.0183 µM | 9.45 µM and 2.53 µM | 0.0709 µM | 18.1 µM | 2.48 µM | 5.88 µM and 18.5 µM | – | 18.5 µM | 0.0494 µM | 5.2 µM and 12.8 µM | 4.48 µM | 20.3 µM
10 | C[C@@H](NC(=O)c1ccc(F)cc1)c1ccc2c(c1)CCN2C(=O)C1CCOCC1 | > 100 µM | > 100 µM | > 100 µM | > 100 µM | > 100 µM | > 100 µM | > 100 µM | > 100 µM | > 100 µM | > 100 µM | > 100 µM | > 100 µM | > 100 µM | > 100 µM | > 100 µM | > 100 µM | > 100 µM | > 100 µM | 79.2 µM | > 100 µM
11 | CC(C)(C)c1cc(C(=O)O)c2c(c1)C(=O)OC2(c1ccccc1)c1ccccc1C(=O)O (centres undefined) | – | > 100 µM | – | > 100 µM | – | > 100 µM | – | > 100 µM | – | > 100 µM | – | > 100 µM | – | > 100 µM | > 100 µM | > 100 µM | – | > 100 µM | – | > 100 µM
12 | COc1ccc(OC)c(Cc2cnc3nc(N)nc(N)c3c2C)c1 | – | 11.4 µM | – | 48.1 µM | – | 33.3 µM | – | 36.9 µM | – | 25.6 µM | – | 33.6 µM | – | 27.9 µM | – | 47.2 µM | – | > 83.3 µM | – | 21.3 µM
13 | O=c1[nH]c(=S)[nH]c(-c2ccccc2)c1Cc1c(O)ccc2ccccc12 | – | > 100 µM | – | > 100 µM | – | 82.1 µM | – | > 100 µM | – | > 100 µM | – | > 100 µM | – | 48.6 µM | – | 58 µM | – | 64.4 µM | – | 65 µM
14 | COc1ccc(/C=N\Nc2nc(SCC(C)C)nc(-c3ccc(OC)cc3)c2C#N)cc1 | 11.7 µM | > 100 µM | 20.4 µM | > 100 µM | 10.5 µM | 49.7 µM | 0.524 µM | 16.2 µM | 18.2 µM | 75.2 µM | 2.1 µM | 20.4 µM | 17.2 µM | 39.7 µM | 1.36 µM | 10.7 µM | 12.4 µM | 86.9 µM | 1.67 µM | 8.06 µM
15 | Cc1cc(O)c2c3c(ccc2c1)C(=O)c1c(O)cccc1C3=O | – | > 100 µM | – | > 100 µM | – | > 100 µM | – | > 100 µM | – | > 100 µM | – | > 100 µM | – | > 100 µM | – | > 100 µM | – | > 100 µM | – | > 74.7 µM
16 | COc1ccc(C2CC(c3ccc(N(C)C)cc3)=NN2c2ccc(S(N)(=O)=O)cc2)cc1 (centres undefined) | 2.99 µM | > 100 µM | 6.57 µM | > 100 µM | 2.54 µM | 8.09 µM | 3.16 µM | > 100 µM | 1.87 µM | 4.02 µM | 2.15 µM | 4.63 µM | 4 µM | 14.3 µM | 4.51 µM | > 100 µM | 3.79 µM | > 100 µM | 5.42 µM | > 100 µM
17 | COc1cc2c(cc1NC(=O)C(Cl)Cl)-c1ccc(NC(=O)C(Cl)Cl)cc1C2 | 0.354 µM | 1.94 µM | 1.77 µM | 4.75 µM | 6.04 µM | 17.1 µM | 0.741 µM | 2.73 µM | 5.43 µM | 18.1 µM | 4.67 µM | 19.6 µM | 0.708 µM | 2.07 µM | 0.707 µM | 8.6 µM | 0.347 µM | 1.32 µM | 0.758 µM | 3.19 µM
